Results taken from EP4129324A1, “COMPOSITIONS COMPRISING AT LEAST AN AMYLIN RECEPTOR AGONIST AND A GLP-1 RECEPTOR AGONIST” (Adocia, priority 2021, dated 2023).
“Also recorded” adds a separate entry of the source.

Tested on: gastro-intestinal transit (gastric emptying) in the mouse
Assay: Gastric emptying (stomach content weight) after charcoal suspension in fasted mice, subcutaneous administration
Assay type: in vivo
Details: male Swiss mice, subcutaneous injection of a composition comprising pramlintide alone, versus vehicle
Procedure: The aim of this study was to evaluate the effects of pramlintide (compositions C7-1 and C7-2) and co-administration of pramlintide (compositions C7-1 and C7-2) and exenatide (C7-3 and C7-4) on gastro-intestinal transit (gastric emptying) in the mouse.
Co-administration means that the composition of pramlintide and the composition of exenatide were administered separately.
Studies were conducted on naive male Swiss mice (Janvier Lab) as no gender specific effect were expected. Body weight range of 25-32 g were included in the analysis.
Mice were approximately fasted for 18 hours (~T0-18 h). The gastric emptying (i.e. stomach content) was measured via the administration of a suspension of charcoal at T0 (activated charcoal (0.4 ml/mouse, […]; Sigma Reference number C9157), suspended 10% with 2.5% arabic gum in distilled water). […] Afterwards, the stomach was opened, the contents washed out and the weight recorded again (empty stomach weight).
The results are expressed as the variation of gastric content with the administration compositions comprising pramlintide compared with the gastric content with administration the vehicle (weight of gastric content with pramlintide / weight of gastric content with vehicle). […]

Lys-Cys-Asn-Thr-Ala-Thr-Cys-Ala-Thr-Gln-Arg-Leu-Ala-Asn-Phe-Leu-Val-His-Ser-Ser-Asn-Asn-Phe-Gly-Pro-lle-Leu-Pro-Pro-Thr-Asn-Val-Gly-Ser- Asn-Thr-Tyr [pramlintide]
stomach (gastric) content weight, i.e. gastric emptying, result in words: increases the stomach content weight; also recorded: increases the gastric content weight
